According to ChEMBL document CHEMBL3112462, “2-acylamino-5-nitro-1,3-thiazoles: preparation and in vitro bioevaluation against four neglected protozoan parasites” (Bioorg Med Chem, 2014):

What was measured:
[1] = test system: Leishmania amazonensis; assay: Antimicrobial activity against promastigote stage of Leishmania amazonensis IFLA/BR/67/PH-8 clinical isolate after 72 hrs by Neubauer chamber analysis; assay type: functional, organism-based; conditions: IFLA/BR/67/PH-8, 72 h
[2] = test system: Trichomonas vaginalis; assay: Antimicrobial activity against Trichomonas vaginalis GT3 incubated for 48 hrs followed by compound washout measured after 48 hrs; assay type: functional, organism-based; conditions: GT3, 48 h
[3] = test system: Giardia intestinalis; assay: Antimicrobial activity against Giardia intestinalis IMSS:0696:1 incubated for 48 hrs followed by compound washout measured after 48 hrs; assay type: functional, organism-based; conditions: Giardia duodenalis, IMSS:0696:1, 48 h
[4] = Cytotoxicity against African green monkey Vero cells assessed as cell viability after 48 hrs by SRB assay; assay type: cell-based; conditions: chlorocebus sabaeus
[5] = test system: Trypanosoma cruzi; assay: Antimicrobial activity against epimastigote stage of Trypanosoma cruzi MHOM/MX/1994/Ninoa clinical isolate after 72 hrs by Neubauer chamber analysis; assay type: functional, organism-based
[6] = test system: Trichomonas vaginalis; assay: Ratio of metronidazole IC50 to compound IC50 for Trichomonas vaginalis GT3; assay type: functional
[7] = test system: Giardia intestinalis; assay: Ratio of metronidazole IC50 to compound IC50 for Giardia intestinalis IMSS:0696:1; assay type: functional, Giardia duodenalis
[8] = Selectivity index, ratio of CC50 for African green monkey Vero cells to IC50 for Trichomonas vaginalis GT3; assay type: functional
[9] = Selectivity index, ratio of CC50 for African green monkey Vero cells to IC50 for Giardia intestinalis IMSS:0696:1; assay type: functional
[10] = test system: Trypanosoma cruzi; assay: Ratio of benznidazole IC50 to compound IC50 for epimastigote stage of Trypanosoma cruzi MHOM/MX/1994/Ninoa clinical isolate; assay type: functional
[11] = test system: Leishmania amazonensis; assay: Ratio of pentamidine IC50 to compound IC50 for promastigote stage of Leishmania amazonensis IFLA/BR/67/PH-8 clinical isolate; assay type: functional

Row | IC50 [1] | IC50 ([2]; read-out: IC50) | IC50 ([2]; read-out: pIC50 (converted)) | IC50 ([3]; read-out: IC50) | IC50 ([3]; read-out: pIC50 (converted)) | IC50 [5] | Compound | CC50 at 48 h [4] | Ratio IC50 [6] | Ratio IC50 [7] | Ratio CC50/IC50 [8] | Ratio CC50/IC50 [9] | Ratio IC50 [10] | Ratio IC50 [11]
1 | > 50 µM | 0.387 µM | 0.398 µM | 1.8 µM | 1.82 µM | > 50 µM | CCCCOc1ccc(NC(=O)Nc2ncc([N+](=O)[O-])s2)cc1 | 58 µM | – | – | – | – | – | –
2 | > 50 µM | 1.23 µM | 1.26 µM | 7.83 µM | 7.94 µM | > 50 µM | O=C(Nc1ccc(F)cc1)Nc1ncc([N+](=O)[O-])s1 | > 1000 µM | – | – | – | – | – | –
3 | > 50 µM | 0.022 µM | 0.0251 µM | 0.49 µM | 0.501 µM | > 50 µM | CC(=O)Nc1ncc([N+](=O)[O-])s1 [NITHIAMIDE] | > 1000 µM | 13 | 11 | – | – | – | –
4 | 32.2 µM | 1.3 µM | 1.58 µM | 29.1 µM | 29.5 µM | > 50 µM | COc1ccc(NC(=O)Nc2ncc([N+](=O)[O-])s2)cc1 | – | – | – | – | – | – | –
5 | 14.3 µM | – | – | – | – | > 50 µM | N=C(N)c1ccc(OCCCCCOc2ccc(C(=N)N)cc2)cc1 [PENTAMIDINE] | 47 µM | – | – | – | – | – | –
6 | 38.5 µM | – | – | 2.57 µM | 2.57 µM | > 50 µM | O=C(Nc1ccccc1)Nc1ncc([N+](=O)[O-])s1 | > 1000 µM | – | – | – | – | – | –
7 | > 50 µM | – | – | – | – | – | O=C(Cn1ccnc1[N+](=O)[O-])NCc1ccccc1 [BENZNIDAZOLE] | 14 µM | – | – | – | – | – | –
8 | > 50 µM | 1.65 µM | 2 µM | 0.359 µM | 0.363 µM | > 50 µM | O=C(Nc1ncc([N+](=O)[O-])s1)NC1CCCCC1 | > 1000 µM | – | 11 | – | – | – | –
9 | > 50 µM | 0.01 µM | 0.01 µM | 6.41 µM | 6.46 µM | > 50 µM | CCOC(=O)C(=O)Nc1ncc([N+](=O)[O-])s1 | 1420 µM | 29 | – | 141500 | 220 | – | –
10 | > 50 µM | 0.305 µM | 0.316 µM | 0.398 µM | 0.398 µM | > 50 µM | CCCCC(=O)Nc1ncc([N+](=O)[O-])s1 | > 1000 µM | – | 11 | – | – | – | –
11 | > 50 µM | – | 0.316 µM | – | – | > 50 µM | Cc1ncc([N+](=O)[O-])n1CCO [METRONIDAZOLE] | 387 µM | – | – | – | – | – | –
12 | > 50 µM | 0.081 µM | 0.1 µM | 0.01 µM | 0.01 µM | > 50 µM | COC(=O)Nc1ncc([N+](=O)[O-])s1 | 2460 µM | 4 | 536 | 30407 | 246300 | – | –
13 | 37.2 µM | 1.03 µM | 1.26 µM | 0.577 µM | 0.589 µM | > 50 µM | O=C(Nc1ccc(Cl)cc1)Nc1ncc([N+](=O)[O-])s1 | > 1000 µM | – | 11 | – | – | – | –
14 | > 50 µM | 2.58 µM | 3.16 µM | 1.63 µM | 1.66 µM | > 50 µM | CCCCCCCCCCCCCCCC(=O)Nc1ncc([N+](=O)[O-])s1 | > 1000 µM | – | – | – | – | – | –
15 | > 50 µM | 0.282 µM | 0.316 µM | 3.75 µM | 3.8 µM | > 50 µM | CCOc1ccc(NC(=O)Nc2ncc([N+](=O)[O-])s2)cc1 | > 1000 µM | – | – | – | – | – | –

Row | Compound | IC50 [1] | IC50 ([2]; read-out: IC50) | IC50 ([2]; read-out: pIC50 (converted)) | IC50 ([3]; read-out: IC50) | IC50 ([3]; read-out: pIC50 (converted)) | IC50 [5] | CC50 at 48 h [4] | Ratio IC50 [6] | Ratio IC50 [7] | Ratio CC50/IC50 [8] | Ratio CC50/IC50 [9] | Ratio IC50 [10] | Ratio IC50 [11]
16 | O=C(Nc1ccc([N+](=O)[O-])cc1)Nc1ncc([N+](=O)[O-])s1 | > 50 µM | 0.958 µM | 1 µM | 15.3 µM | 15.5 µM | > 50 µM | – | – | – | – | – | – | –
17 | CC(=O)Oc1ccccc1C(=O)Nc1ncc([N+](=O)[O-])s1 [NITAZOXANIDE] | 7.23 µM | – | 0.0794 µM | – | 1.23 µM | – | 833 µM | – | – | – | – | 2 | 2
18 | Nc1ncc([N+](=O)[O-])s1 | > 50 µM | 52.9 µM | 63.1 µM | 29.6 µM | 27.5 µM | > 50 µM | 441 µM | – | – | – | – | – | –
